The target in this test is T1, AKR1C3 (aldo-keto reductase 1C3) (Homo sapiens, UniProt P42330).
T1 construct: human recombinant enzyme expressed in E. coli (Novus NBC1-21051)
Nature of the test: Km by real-time NADPH fluorescence ([…]); GC-QToF gave Km […]. The format is biochemical.

T1 sequence (P42330 whole entry): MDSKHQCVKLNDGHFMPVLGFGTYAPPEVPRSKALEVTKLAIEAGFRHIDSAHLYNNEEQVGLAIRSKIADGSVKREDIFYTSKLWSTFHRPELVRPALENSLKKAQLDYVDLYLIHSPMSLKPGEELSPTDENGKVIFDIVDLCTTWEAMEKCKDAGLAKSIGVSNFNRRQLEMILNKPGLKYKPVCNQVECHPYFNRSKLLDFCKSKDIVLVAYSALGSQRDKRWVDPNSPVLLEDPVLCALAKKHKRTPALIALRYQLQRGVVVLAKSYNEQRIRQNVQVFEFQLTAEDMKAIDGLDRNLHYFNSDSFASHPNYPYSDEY

Turning to `C[C@]12CC[C@@H](O)C[C@H]1CC[C@@H]1[C@@H]2CC[C@]2(C)C(=O)CC[C@@H]12` [D, 3α-hydroxy-5β-androstan-17-one], the Km worked out at 9.7 µM.

The values above are taken from paper PMC7698016 (Metabolites, 2020).
